Assay results reported in publication PMC3655251, “Urea Output by L3 Teladorsagia circumcincta and some Properties of Two Urea Producing Enzymes” (Iranian Journal of Parasitology, 2013).

Experiments:
[1] = test system: T1, arginine amidinohydrolase; assay: coupled urease / glutamate dehydrogenase assay, NADH oxidation at […] nm; format: biochemical, Teladorsagia circumcincta; settings: L3 homogenate, 100 mM phosphate buffer, 30 °C, no metal added; read-out: apparent K m
T1 construct: native enzyme in crude homogenate of L3 larvae, not purified

[2] = test system: T2, creatine amidinohydrolase; assay: as above; format: biochemical, Teladorsagia circumcincta; settings: L3 homogenate, 100 mM phosphate buffer, 30 °C, no metal added; read-out: apparent K m
T2 construct: native activity in crude homogenate of L3 larvae, not purified; no nematode gene homologue found by the authors

`N=C(N)NCCC[C@H](N)C(=O)O` [arginine] was tested, and the Km [1] was 700 ± 200 µM.

Work on `CN(CC(=O)O)C(=N)N` [creatine] yielded a Km [2] of 1100 ± 100 µM.
